Data taken from US6737383B1, “Herbicidal oxadiazolidines” (priority 1999, dated 2004).

What was measured:
bedstraw = test: Test B pre/postemergence bedstraw; type: in vivo, Galium aparine
Summary of the method: (§1)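 Herbicidal effect was estimated by eye on a ten-point control scale after plants spent twelve to sixteen days in a greenhouse following soil or foliar treatment. Foliar sprays targeted plants at one to four leaves; all doses were formulated in a non-phytotoxic solvent with surfactant.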

blackgrass = test: Test B pre/postemergence blackgrass; type: in vivo, Alopecurus myosuroides
Summary of the method: as §1

surinam grass = test: Test B pre/postemergence surinam grass; type: in vivo, Brachiaria decumbens
Summary of the method: as §1

corn = test: Test B pre/postemergence corn; type: in vivo, Zea mays
Summary of the method: as §1

crabgrass = test: Test B pre/postemergence crabgrass; type: in vivo, Digitaria sanguinalis
Summary of the method: as §1

giant foxtail = test: Test B pre/postemergence giant foxtail; type: in vivo, Setaria faberii
Summary of the method: as §1

morningglory = test: Test B pre/postemergence morningglory; type: in vivo, Ipomoea hederacea
Summary of the method: as §1

rape = test: Test B pre/postemergence rape; type: in vivo, Brassica napus
Summary of the method: as §1

soybean = test: Test B pre/postemergence soybean; type: in vivo, Glycine max
Summary of the method: as §1

velvetleaf = test: Test B pre/postemergence velvetleaf; type: in vivo, Abutilon theophrasti
Summary of the method: as §1

wheat = test: Test B pre/postemergence wheat; type: in vivo, Triticum aestivum
Summary of the method: as §1

wild oat = test: Test B pre/postemergence wild oat; type: in vivo, Avena fatua
Summary of the method: as §1

purple nutsedge = test: Test B pre/postemergence purple nutsedge; type: in vivo, Cyperus rotundus
Summary of the method: as §1

rice = test: Test B flood test rice; type: in vivo, Oryza sativa
Summary of the method: (§2)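 Read-out is a visual response score from 0 (no effect) to 10 (complete control), assigned by comparison with untreated controls. Treatment was applied at the 2-leaf stage, and plants stayed in the greenhouse for twelve to sixteen days before scoring.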

smallflower flatsedge = test: Test B flood test smallflower flatsedge; type: in vivo, Cyperus difformis
Summary of the method: as §2

duck salad = test: Test B flood test duck salad; type: in vivo, Heteranthera limosa
Summary of the method: as §2

[1] = Postemergence, Rate 125 g/ha, scale of 0 to 10 where 0 is no effect and 10 is complete control
[2] = Preemergence, Rate 62 g/ha, scale of 0 to 10 where 0 is no effect and 10 is complete control
[3] = Preemergence, Rate 125 g/ha, 0 is no effect, 10 is complete control
[4] = Preemergence, Rate 250 g/ha, scale 0 to 10, 0 is no effect, 10 is complete control
[5] = Preemergence, Rate 500 g/ha, scale 0 to 10 (0 no effect, 10 complete control)
[6] = Rate 250 g/ha, Postemergence, scale 0 to 10, 0 is no effect, 10 is complete control
[7] = Rate 62 g/ha, Postemergence, scale of 0 to 10 where 0 is no effect and 10 is complete control
[8] = Rate 500 g/ha, Postemergence, scale 0 to 10
[9] = Postemergence (flood test species), Rate 125 g/ha, scale of 0 to 10 where 0 is no effect and 10 is complete control
[10] = Rate 62 g/ha, Postemergence section, flood test species, scale of 0 to 10 where 0 is no effect and 10 is complete control
[11] = Rate 250 g/ha, Postemergence (flood test), scale 0 to 10, 0 is no effect, 10 is complete control
[12] = Rate 500 g/ha, listed under Postemergence (flood test species), scale 0 to 10

Cc1ccccc1-n1c(=O)on(C(=O)N(c2cccc(F)c2F)C(C)C)c1=O [Compound 171]
4: Rape plant response rating (rape; [5]) | Wild oats plant response rating (wild oat; [4])
3: B. signalgrass plant response rating (surinam grass; [4]) | Soybean plant response rating (soybean; [8]) | Velvetleaf plant response rating (velvetleaf; [8])
1: B. signalgrass plant response rating (0 to 10 scale) (surinam grass; [3]) | Morningglory plant response rating (morningglory; [1]) | Soybean plant response rating (soybean; [1]) | Soybean plant response rating (soybean; [7]) | Plant response rating, Soybean (soybean; [6])
2: Blackgrass plant response rating (blackgrass; [5]) | Crabgrass plant response rating (crabgrass; [2]) | Plant response rating, Crabgrass (crabgrass; [6]) | Plant response rating, Morningglory (morningglory; [6]) | Morningglory plant response rating (morningglory; [8]) | Wild oats plant response rating (0 to 10 scale) (wild oat; [3])
7: Bedstraw plant response rating (bedstraw; [1]) | Crabgrass plant response rating (0 to 10 scale) (crabgrass; [3]) | Crabgrass plant response rating (crabgrass; [8]) | Giant foxtail plant response rating (0 to 10 scale) (giant foxtail; [3])
5: B. signalgrass plant response rating (surinam grass; [5]) | Giant foxtail plant response rating (giant foxtail; [2]) | Wild oats plant response rating (wild oat; [5])
0: Bedstraw plant response rating (bedstraw; [2]) | Bedstraw plant response rating (0 to 10 scale) (bedstraw; [3]) | Bedstraw plant response rating (bedstraw; [4]) | Bedstraw plant response rating (bedstraw; [5]) | Blackgrass plant response rating (blackgrass; [1]) | Blackgrass plant response rating (blackgrass; [2]) | Blackgrass plant response rating (0 to 10 scale) (blackgrass; [3]) | Blackgrass plant response rating (blackgrass; [4]) | Blackgrass plant response rating (blackgrass; [7]) | Plant response rating, Blackgrass (blackgrass; [6]) | Blackgrass plant response rating (blackgrass; [8]) | B. signalgrass plant response rating (surinam grass; [1]) | B. signalgrass plant response rating (surinam grass; [2]) | B. signalgrass plant response rating (surinam grass; [7]) | Plant response rating, B. signalgrass (surinam grass; [6]) | B. signalgrass plant response rating (surinam grass; Rate 500 g/ha, Postemergence, scale 0 to 10, 0 no effect, 10 complete control) | Corn plant response rating (corn; [1]) | Corn plant response rating (corn; [2]) | Corn plant response rating (0 to 10 scale) (corn; [3]) | Corn plant response rating (corn; [4]) | Corn plant response rating (corn; [5]) | Corn plant response rating (corn; [7]) | Plant response rating, Corn (corn; [6]) | Corn plant response rating (corn; [8]) | Crabgrass plant response rating (crabgrass; [1]) | Crabgrass plant response rating (crabgrass; [7]) | Giant foxtail plant response rating (giant foxtail; [1]) | Giant foxtail plant response rating (giant foxtail; [7]) | Plant response rating, Giant foxtail (giant foxtail; [6]) | Giant foxtail plant response rating (giant foxtail; [8]) | Morningglory plant response rating (morningglory; [2]) | Morningglory plant response rating (0 to 10 scale) (morningglory; [3]) | Morningglory plant response rating (morningglory; [4]) | Morningglory plant response rating (morningglory; [5]) | Morningglory plant response rating (morningglory; [7]) | Rape plant response rating (rape; [1]) | Rape plant response rating (rape; [2]) | Rape plant response rating (0 to 10 scale) (rape; [3]) | Rape plant response rating (rape; [7]) | Plant response rating, Rape (rape; [6]) | Rape plant response rating (rape; [8]) | Soybean plant response rating (soybean; [2]) | Soybean plant response rating (0 to 10 scale) (soybean; [3]) | Soybean plant response rating (soybean; [4]) | Soybean plant response rating (soybean; [5]) | Velvetleaf plant response rating (velvetleaf; [2]) | Velvetleaf plant response rating (0 to 10 scale) (velvetleaf; [3]) | Velvetleaf plant response rating (velvetleaf; [4]) | Velvetleaf plant response rating (velvetleaf; [5]) | Plant response rating, Velvetleaf (velvetleaf; [6]) | Wheat plant response rating (wheat; [2]) | Wheat plant response rating (0 to 10 scale) (wheat; [3]) | Wheat plant response rating (wheat; [4]) | Wheat plant response rating (wheat; [5]) | Plant response rating, Wheat (wheat; [6]) | Wheat plant response rating (wheat; [8]) | Wild oats plant response rating (wild oat; [2]) | Plant response rating, Wild oats (wild oat; [6]) | Wild oats plant response rating (wild oat; [8]) | Nutsedge plant response rating (purple nutsedge; [1]) | Nutsedge plant response rating (purple nutsedge; [2]) | Nutsedge plant response rating (0 to 10 scale) (purple nutsedge; [3]) | Nutsedge plant response rating (purple nutsedge; [4]) | Nutsedge plant response rating (purple nutsedge; [5]) | Nutsedge plant response rating (purple nutsedge; [7]) | Plant response rating, Nutsedge (purple nutsedge; [6]) | Nutsedge plant response rating (purple nutsedge; [8]) | Rice plant response rating (rice; [9]) | Rice plant response rating (rice; [10]) | Plant response rating, Rice (rice; [11]) | Rice plant response rating (rice; [12]) | S. Flatsedge plant response rating (smallflower flatsedge; [9]) | S. Flatsedge plant response rating (smallflower flatsedge; [10]) | Plant response rating, S. Flatsedge (smallflower flatsedge; [11]) | S. Flatsedge plant response rating (smallflower flatsedge; [12]) | Ducksalad plant response rating (duck salad; [9]) | Ducksalad plant response rating (duck salad; [10]) | Plant response rating, Ducksalad (duck salad; [11]) | Ducksalad plant response rating (duck salad; [12])
8: Plant response rating, Bedstraw (bedstraw; [6])
10: Crabgrass plant response rating (crabgrass; [4]) | Crabgrass plant response rating (crabgrass; [5]) | Giant foxtail plant response rating (giant foxtail; [4]) | Giant foxtail plant response rating (giant foxtail; [5])
